# Assay results: US9616046B2, “Hepatocyte-proliferating agent” (JAPAN BIO PRODUCTS CO., LTD., priority 2013, dated 2017)
# System: rat normal hepatocytes
# Test: Intracellular signaling pathway analysis using kinase inhibitors (DNA synthesis activity, BrdU ELISA)
# Format: cell-based
# Details: PARI-S001 (pyroglutamic acid 10 mM) plus inhibitor; PD98059, SB203580, LY294002 6.3-50 μM, rapamycin 1.6-12.5 ng/mL; 0.5% DMSO; 22 hours
# Description: The intracellular signaling pathway analysis was carried out in order to clarify through which intracellular signaling pathway the PARI-S001 promoted cell proliferation activity. PARI-S001 and various kinase inhibitors were used to measure the cell proliferation activity. The measurement method used was the same method as that in the above-described <Normal Cell Proliferation Test>. The rat normal hepatocytes were cultured for 3 hours after seeding, followed by replacement with the medium to which […] (pyroglutamic acid concentration: 10 mM) and each kinase inhibitor were simultaneously added. The concentration of rapamycin (an inhibitor of mTOR) was adjusted to a final concentration of 1.6 ng/mL, 3.1 ng/mL, 6.3 ng/mL, or 12.5 ng/mL. The concentration of PD98059 (an inhibitor of MEK1 and MEK2), SB203580 (an inhibitor of p38 of MAPK), and LY294002 (an inhibitor of PI3K) was adjusted to a final concentration of 6.3 μM, 12.5 μM, 25 μM, or 50 μM. To promote the dissolution of each kinase inhibitor, dimethyl sulfoxide (hereinafter abbreviated as “DMSO”) was added to a final concentration of 0.5% to the medium. Similarly, DMSO was added to a final concentration of 0.5% to the control. Culture was further carried out for 22 hours after medium replacement, followed by evaluating DNA synthesis activity using a Cell Proliferation ELISA BrdU (colorimetric) Kit (Roche Co., Ltd.).
smiles,measurement,value
COc1cccc(-c2cc(=O)c3ccccc3o2)c1N [PD98059],DNA synthesis activity in rat normal hepatocytes on simultaneous addition of PARI-S001 and kinase inhibitor,suppress DNA synthesis activity in the rat normal hepatocytes depending on the concentration of the inhibitor
